Like-named read-outs stand apart in the source and are kept apart here. Ends that are not written are not given here.
What was measured:
[1] = test system: ESKAPEE pathogens (all bacteria); test: Geometric mean MIC, therapeutic index and selectivity ratio, all bacteria; assay type: cell-based; conditions: across the 23 ESKAPEE strains
How it was run: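 Inoculum 5 × 10^5 CFU ml^−1 in CAMHB for antibiotics or MHB for peptidomimetics; incubated 37°C, 120 rpm, 16–20 h. Suspensions plated on Trypticase Soya Agar with phosphatidylcholine and Tween 80 for MBC/MFC. Geometric mean MIC computed across pathogens; therapeutic index calculated by formula.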

A. baumannii 007 = conditions: A. baumannii 007
How it was run: (§1)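 Broth microdilution with 5 × 10^5 CFU/ml inoculum in cation-adjusted Mueller–Hinton broth for antibiotics or MHB for peptidomimetics; 16–20 h at 37°C, 120 rpm. MBC/MFC by plating on Trypticase Soya Agar with phosphatidylcholine and Tween 80; geometric mean MIC calculated across pathogens.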

P. aeruginosa 33 = conditions: P. aeruginosa 33
How it was run: as §1

K. pneumoniae JIE2709 = conditions: K. pneumoniae JIE2709; MHB (melimine/Mel4 with 0.2% BSA, 0.01% acetic acid); mean MIC
How it was run: as §1

En. cloacae 005 = conditions: En. cloacae 005
How it was run: as §1

En. cloacae 003 = conditions: En. cloacae 003
How it was run: as §1

A. baumannii 008 = conditions: A. baumannii 008
How it was run: as §1

A. baumannii 005 = conditions: A. baumannii 005
How it was run: as §1

E. coli 0015 = conditions: E. coli 0015
How it was run: as §1

E. coli 005 = conditions: E. coli 005
How it was run: as §1

S. aureus 04 = conditions: S. aureus 004
How it was run: as §1

K. pneumoniae JIE4212 = conditions: K. pneumoniae JIE4212
How it was run: as §1

P. aeruginosa 216 = conditions: P. aeruginosa 216; MHB (melimine/Mel4 with 0.2% BSA, 0.01% acetic acid); mean MIC
How it was run: as §1

E. coli 0011 = conditions: E. coli 0011
How it was run: as §1

A. baumannii ATCC 19 606 = conditions: A. baumannii ATCC 19 606
How it was run: as §1

K. pneumoniae JIE2713 = conditions: K. pneumoniae JIE2713
How it was run: as §1

A. baumannii 006 = conditions: A. baumannii 006
How it was run: as §1

E. coli 0010 = conditions: E. coli 0010
How it was run: as §1

S. aureus 38 = conditions: S. aureus 38
How it was run: as §1

S. aureus 117 = conditions: S. aureus 117
How it was run: as §1

[2] = test system: Enteroc. faecalis NCTC 13 379; conditions: Enteroc. faecalis NCTC 13 379; MHB (melimine/Mel4 with 0.2% BSA, 0.01% acetic acid); mean MIC
How it was run: as §1

S. aureus 105 = conditions: S. aureus 105
How it was run: as §1

P. aeruginosa AR-1270 = conditions: P. aeruginosa AR-1270; MHB (melimine/Mel4 with 0.2% BSA, 0.01% acetic acid); mean MIC
How it was run: as §1

En. cloacae 001 = conditions: En. cloacae 001
How it was run: as §1

[3] = MHB (melimine/Mel4 with 0.2% BSA, 0.01% acetic acid), mean MIC

TLISWIKNKRKQRPRVSRRRRRRGGRRRR [Melimine]
16.5 µM: MIC of peptidomimetics (P. aeruginosa 33; value in brackets) | MIC of peptidomimetics (A. baumannii ATCC 19 606; value in brackets) | MIC of peptidomimetics (A. baumannii 006; value in brackets)
66.0 µM: MIC of peptidomimetics (En. cloacae 005; value in brackets) | MIC of peptidomimetics (A. baumannii 008; value in brackets) | MIC of peptidomimetics (E. coli 005; value in brackets) | MIC of peptidomimetics (K. pneumoniae JIE4212; value in brackets) | MIC of peptidomimetics (E. coli 0010; value in brackets)
8.2 µM: MIC of peptidomimetics (S. aureus 04; value in brackets) | MIC of peptidomimetics (S. aureus 38; value in brackets) | MIC of peptidomimetics (S. aureus 117; value in brackets) | MIC of peptidomimetics (S. aureus 105; value in brackets)
250 µg/mL: MIC of peptidomimetics (En. cloacae 005; [3]) | MIC of peptidomimetics (A. baumannii 008; [3]) | MIC of peptidomimetics (E. coli 005; [3]) | MIC of peptidomimetics (K. pneumoniae JIE4212; [3]) | MIC of peptidomimetics (E. coli 0010; [3])
62.5 µg/mL: MIC of peptidomimetics (P. aeruginosa 33; [3]) | MIC of peptidomimetics (A. baumannii ATCC 19 606; [3]) | MIC of peptidomimetics (A. baumannii 006; [3])
500 µg/mL: MIC of peptidomimetics (K. pneumoniae JIE2709) | MIC of peptidomimetics (P. aeruginosa 216) | MIC of peptidomimetics [2] | MIC of peptidomimetics (P. aeruginosa AR-1270)
33.0 µM: MIC of peptidomimetics (A. baumannii 007; value in brackets) | MIC of peptidomimetics (En. cloacae 003; value in brackets) | MIC of peptidomimetics (A. baumannii 005; value in brackets) | MIC of peptidomimetics (E. coli 0015; value in brackets) | MIC of peptidomimetics (E. coli 0011; value in brackets) | MIC of peptidomimetics (K. pneumoniae JIE2713; value in brackets) | MIC of peptidomimetics (En. cloacae 001; value in brackets)
31.3 µg/mL: MIC of peptidomimetics (S. aureus 04; [3]) | MIC of peptidomimetics (S. aureus 38; [3]) | MIC of peptidomimetics (S. aureus 117; [3]) | MIC of peptidomimetics (S. aureus 105; [3])
35.1 µM: Geometric mean MIC, all bacteria ([1]; value in brackets)
132.8 µg/mL: Geometric mean MIC, all bacteria [1]
125 µg/mL: MIC of peptidomimetics (A. baumannii 007; [3]) | MIC of peptidomimetics (En. cloacae 003; [3]) | MIC of peptidomimetics (A. baumannii 005; [3]) | MIC of peptidomimetics (E. coli 0015; [3]) | MIC of peptidomimetics (E. coli 0011; [3]) | MIC of peptidomimetics (K. pneumoniae JIE2713; [3]) | MIC of peptidomimetics (En. cloacae 001; [3])

Reference: article PMC11879280, “Antimicrobial activity of peptoids against Metallo-β-lactamase-producing Klebsiella pneumoniae, Acinetobacter baumannii, Pseudomonas aeruginosa, and other WHO priority pathogens, including Candida auris” (Journal of Applied Microbiology, 2025)
